Results published in patent US20200102264A1, “MARMELIN ANALOGS AND METHODS OF USE IN CANCER TREATMENT” (THE UNIVERSITY OF KANSAS, priority 2014, published 2020).

How the values were obtained:
KU7 bladder cancer cells = assay: hexoseaminidase cell proliferation assay, KU7; assay type: cell-based
Description: (§1) Using hexoseaminidase assay, we determined the effect of the compounds on cell proliferation. […] The IC50 value at 48 hours is below 10 μM in all the cancer cell lines.

SW480 cells = assay: colony formation, SW480; assay type: cell-based
[1] = tested on: PanC-1 pancreatic cancer cells; assay: hexoseaminidase cell proliferation assay, PanC-1; assay type: cell-based
Description: as §1
(§2) Using hexoseaminidase assay, we determined the effect of the compounds on cell proliferation. […] The MRL16 IC50 value at 48 hours is below 0.3 μM in Colon cancer cell lines. […] Overall, the analogs can be used as chemotherapeutic agents against colon and pancreatic cancer.

[2] = tested on: HCT116 colon cancer cells; assay: hexoseaminidase cell proliferation assay, HCT116; assay type: cell-based
From the text: Using hexoseaminidase assay, we determined the effect of the compounds on cell proliferation. […]
Using hexoseaminidase assay, we determined the effect of the compounds on cell proliferation. […] […] […] Overall, the analogs can be used as chemotherapeutic agents against colon and pancreatic cancer.

[3] = tested on: Presenilin, Nicastrin, APH1 and PEN2; assay: γ-secretase complex protein expression; assay type: cell-based
From the text: The γ-secretase enzyme complex is made up of four proteins presenilin, nicastrin, APH-1 (anterior pharynx-defective 1), and PEN-2 (presenilin enhancer 2), all of which are essential for activity. Cleavage by the γ-secretase complex releases the Notch intracellular domain (NICD), which in turn translocates into the nucleus of the cells, interacts with the C promoter-binding factor-1 (CBF1) transcriptional cofactor and transactivates target genes, such as those in the hairy and enhancer of split (Hes) and Hes related with YRPW motif (Hey) family proteins. We determined whether the γ-secretase complex comprising of Presenilin, Nicastrin, APH1 and PEN2 is affected.

[4] = tested on: Cyclin D1, c-Myc, Akt phosphorylation, COX-2, VEGF; assay: western blot analysis, cancer promoting genes; assay type: cell-based; settings: HCT116 and SW480 cells, 48 h
Description: (§3) The pathways for apoptosis were studied to determine whether the analogs were capable of inhibiting certain aspects of the pathways. […] HCT116 and SW480 cells treated with MRL, THB, THBCD, DHB, DHBCD and CD for 48 h and performed for western blot analysis. […] It is shown that THBCD also activates caspase 8 and caspase 9. Furthermore, THB and THBCD inhibit anti-apoptotic protein Bcl2 and BclXL levels. […] HCT116 and SW480 cells treated with MRL, THB, THBCD, DHB, DHBCD and CD for 48 h and performed for western blot analysis. Furthermore, THB and THBCD inhibit phosphorylation of Akt (FIG. 3).

HCT116 cells = assay: colony formation, HCT116; assay type: cell-based
CAMKIV = CAMKIV (Homo sapiens, UniProt Q16566); assay: kinase activity against CAMKIV; assay type: biochemical
Sequence of CAMKIV (Q16566 whole entry, species assumed): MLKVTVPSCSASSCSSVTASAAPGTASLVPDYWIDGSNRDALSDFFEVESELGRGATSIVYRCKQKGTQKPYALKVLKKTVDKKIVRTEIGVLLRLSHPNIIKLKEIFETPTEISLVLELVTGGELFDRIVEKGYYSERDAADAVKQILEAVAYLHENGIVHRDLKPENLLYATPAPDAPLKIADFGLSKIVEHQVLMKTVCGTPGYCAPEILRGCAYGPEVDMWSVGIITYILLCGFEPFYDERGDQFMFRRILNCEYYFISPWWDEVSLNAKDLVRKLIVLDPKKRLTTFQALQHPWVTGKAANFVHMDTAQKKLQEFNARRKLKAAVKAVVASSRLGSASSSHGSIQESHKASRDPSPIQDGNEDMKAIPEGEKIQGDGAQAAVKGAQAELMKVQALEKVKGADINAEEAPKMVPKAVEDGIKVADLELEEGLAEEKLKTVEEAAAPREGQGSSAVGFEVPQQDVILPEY

[5] = tested on: caspase 3, caspase 8, caspase 9, Bcl2, BclXL, cytochrome c; assay: western blot analysis, apoptosis proteins; assay type: cell-based; settings: HCT116 and SW480 cells, 48 h
Description: as §3

[6] = tested on: MiaPaCa-2 pancreatic cancer cells; assay: hexoseaminidase cell proliferation assay, MiaPaCa-2; assay type: cell-based
Description: as §1, §2

DCLK1+ HCT116 cells = assay: flow cytometric analysis of DCLK1+ cells; assay type: cell-based; settings: flow cytometry
CAMKII = assay: kinase activity against CAMKII; assay type: biochemical
DCLK1, LGR5 and CD44 = assay: stem cell marker protein expression; assay type: cell-based; settings: HCT116 and SW480 cells
Description: The analogs were also tested with doublecortin and CaM kinase-like-1 (DCLK1), a microtubule-associated kinase expressed in postmitotic neurons and is an intestinal stem cell marker that is expressed in colon adenocarcinoma. DCLK1 distinguishes between tumor and normal stem cells in the intestine and could be a therapeutic target for colon cancer.

[7] = tested on: 253JBV bladder cancer cells; assay: hexoseaminidase cell proliferation assay, 253JBV; assay type: cell-based
Description: as §1

[8] = tested on: HCT116 colon cancer tumor xenografts; assay: HCT116 colon cancer tumor xenografts in nude mice; assay type: in vivo
Description: For in vivo, HCT116 cells were injected into the blanks of nude mice, after one week when there was a palpable tumor and these compounds were injected intraperitonially (5 mg/kg body weight) every day for 21 days. Tumor volumes were measured weekly. On 29th day mice were euthanized and the tumors were removed and weighed for use in histology, immunohistochemistry, and gene expression studies. Both THB and THBCD inhibited growth of the tumor. It is noted that the images of FIG. 4C are from left to right: control; THB; and THBCD.
For in vivo, HCT116 cells were injected into the blanks of nude mice, after one week when there was a palpable tumor and these compounds were injected intraperitonially (5 mg/kg body weight) every day for 21 days. Tumor volumes were measured weekly. On 29th day mice were euthanized and the tumors were removed and weighed for use in histology, immunohistochemistry, and gene expression studies. DBQ inhibited the growth of the tumor. It is noted that the images of FIG. 16C are from left to right: control; and DBQ.
FIGS. 19A and 19B show MRL 16 inhibits tumor growth, such as on colon cancer tumor xenografts. For in vivo, HCT116 cells were injected into the blanks of nude mice, after one week when there was a palpable tumor and these compounds were injected intraperitonially (2 mg/kg body weight) every day for 21 days. Tumor volumes were measured weekly. On 29th day mice were euthanized and the tumors were removed and weighed. MRL16 inhibited growth of the tumor.

[9] = tested on: Mst1/2, Lats1/2, YAP1, TEAD1, 2, and 4; assay: Hippo signaling-related proteins; assay type: cell-based; settings: HCT116 and SW480 cell lines
From the text: The Hippo pathway regulates stem cell proliferation, self-renewal, and differentiation. YAP1 is highly expressed gene in stem cells. […] We next determined the effect of THB or THBCD on Hippo signaling-related proteins in the two colon cancer cells.

[10] = intraperitoneal 5 mg/kg body weight every day for 21 days

O=C(N/N=C/c1ccc(O)c(O)c1O)c1cc2ccccc2cc1O [MRL THB]
IC50 (KU7 bladder cancer cells; KU7, 24 h): 22 µM | IC50 (KU7 bladder cancer cells; KU7, 48 h): 8 µM | IC50 (KU7 bladder cancer cells; KU7, 72 h): 6 µM | colony formation (SW480 cells): significantly inhibited colony formation | IC50 ([1]; PanC-1, 24 h): > 50 µM | IC50 ([1]; PanC-1, 48 h): 10 µM | IC50 ([1]; PanC-1, 72 h): 8 µM | IC50 ([2]; HCT116, 24 h): > 50 µM | IC50 ([2]; HCT116, 48 h): 10 µM | IC50 ([2]; HCT116, 72 h): 7.5 µM | IC50 ([2]; HCT116, 72 h, listed as THB): 8 µM | expression of Presenilin, Nicastrin, APH1 and PEN2 [3]: downregulation | COX-2 and VEGF expressions [4]: inhibit | cyclin D1 and c-Myc levels [4]: inhibit | phosphorylation of Akt [4]: inhibit | colony formation (HCT116 cells): significantly inhibited colony formation | fold less activity against CAMKIV than DCLK1 (CAMKIV): 100 fold | anti-apoptotic protein Bcl2 and BclXL levels [5]: inhibit | cytochrome c [5]: inhibit | IC50 ([6]; MiaPaCa-2, 24 h): > 50 µM | IC50 ([6]; MiaPaCa-2, 48 h): 10 µM | IC50 ([6]; MiaPaCa-2, 72 h): 10 µM | IC50 ([6]; MiaPaCa-2, 72 h, listed as THB): 9 µM | DCLK1+ cells (DCLK1+ HCT116 cells): significant decrease | fold less activity against CAMKII than DCLK1 (CAMKII): 100 fold | DCLK1, LGR5 and CD44 expression (DCLK1, LGR5 and CD44): significantly inhibited | IC50 ([7]; 48 h): 38 µM | IC50 ([7]; 72 h): 15 µM | tumor volume [8, 10]: significantly reduced | tumor weight [8, 10]: significantly reduced | phosphorylation of Akt ([8]; tumor tissues): significantly reduced | COX-2, VEGF and cyclin D1 expression ([8]; tumor xenograft tissues, immunohistochemistry and western blot): significantly reduced | angiogenesis by CD31 staining ([8]; xenograft tumor tissues, immunohistochemistry): inhibit | DCLK1 expression ([8]; xenograft tumors, immunohistochemistry and western blot): inhibit | expression of TEAD1, 2, and 4 [9]: significant downregulation | phosphorylation of Mst1/2, Lats1/2 and YAP1 [9]: significantly downregulated
